In ChEMBL document CHEMBL4118101 (Bioorg Med Chem, 2018):
In brackets after ≈: the same amount, converted by molar mass. Activity calls are given as the source filed them. The calls are words filed in the database; no cut-off is given here.

Tests used:
[1] = Hemolytic activity in mouse RBC at 62.5 ug/ml after 1 hr relative to control; type: ADME, cell-based, Erythrocyte; settings: mouse red blood cells (erythrocytes), read-out: Activity
[2] = test system: Cryptococcus neoformans; assay: Antifungal activity against Cryptococcus neoformans isolate CN2 measured after 48 hrs by CLSI M27-A3 protocol based method; type: functional; settings: Cryptococcus neoformans, isolate CN2, 48 h; read-out: MIC
[3] = test system: Candida albicans; assay: Antifungal activity against Candida albicans ATCC 10231 measured after 48 hrs by CLSI M27-A3 protocol based method; type: functional; settings: ATCC 10231, 48 h
[4] = test system: Candida albicans; assay: Antifungal activity against fluconazole/ITC-susceptible Candida albicans ATCC MYA-2876 measured after 48 hrs by CLSI M27-A3 protocol based method; type: functional; settings: Candida albicans, ATCC MYA-2876, 48 h
[5] = test system: Candida albicans; assay: Antifungal activity against fluconazole/ITC-resistant Candida albicans ATCC 90819 measured after 48 hrs by CLSI M27-A3 protocol based method; type: functional; settings: Candida albicans, ATCC 90819, 48 h; read-out: MIC
[6] = test system: Candida albicans; assay: Antifungal activity against fluconazole/ITC-resistant Candida albicans ATCC MYA-1237 measured after 48 hrs by CLSI M27-A3 protocol based method; type: functional; settings: Candida albicans, ATCC MYA-1237, 48 h; read-out: MIC
[7] = test system: Nakaseomyces glabratus; assay: Antifungal activity against Candida glabrata ATCC 2001 measured after 48 hrs by CLSI M27-A3 protocol based method; type: functional, CBS 138; settings: Nakaseomyces glabratus, CBS 138, 48 h; read-out: MIC
[8] = test system: Pichia kudriavzevii; assay: Antifungal activity against Candida krusei ATCC 6258 measured after 48 hrs by CLSI M27-A3 protocol based method; type: functional; settings: Pichia kudriavzevii, ATCC 6258, 48 h
[9] = test system: Candida parapsilosis; assay: Antifungal activity against Candida parapsilosis ATCC 22019 measured after 48 hrs by CLSI M27-A3 protocol based method; type: functional; settings: Lodderomyces parapsilosis, ATCC 22019, 48 h
[10] = test system: Aspergillus nidulans; assay: Antifungal activity against Aspergillus nidulans ATCC 38163 measured after 48 hrs by CLSI M38-A2 protocol based method; type: functional; settings: ATCC 38163, 48 h
[11] = test system: Aspergillus flavus; assay: Antifungal activity against Aspergillus flavus ATCC MYA-3631 measured after 48 hrs by CLSI M38-A2 protocol based method; type: functional; settings: ATCC MYA-3631, 48 h
[12] = test system: Aspergillus terreus; assay: Antifungal activity against Aspergillus terreus ATCC MYA-3633 measured after 48 hrs by CLSI M38-A2 protocol based method; type: functional; settings: ATCC MYA-3633, 48 h
[13] = test system: Nakaseomyces glabratus; assay: Antifungal activity against Candida glabrata isolate CG1 measured after 48 hrs by CLSI M27-A3 protocol based method; type: functional; settings: Nakaseomyces glabratus, 48 h; read-out: MIC
[14] = test system: Nakaseomyces glabratus; assay: Antifungal activity against Candida glabrata isolate CG2 measured after 48 hrs by CLSI M27-A3 protocol based method; type: functional; settings: Nakaseomyces glabratus, isolate CG2, 48 h; read-out: MIC
[15] = test system: Nakaseomyces glabratus; assay: Antifungal activity against Candida glabrata isolate CG3 measured after 48 hrs by CLSI M27-A3 protocol based method; type: functional; settings: Nakaseomyces glabratus, 48 h; read-out: MIC
[16] = test system: Candida parapsilosis; assay: Antifungal activity against Candida parapsilosis isolate CP1 measured after 48 hrs by CLSI M27-A3 protocol based method; type: functional; settings: Lodderomyces parapsilosis, isolate CP1, 48 h
[17] = test system: Candida parapsilosis; assay: Antifungal activity against Candida parapsilosis isolate CP2 measured after 48 hrs by CLSI M27-A3 protocol based method; type: functional; settings: Lodderomyces parapsilosis, isolate CP2, 48 h
[18] = test system: Cryptococcus neoformans; assay: Antifungal activity against Cryptococcus neoformans isolate CN1 measured after 48 hrs by CLSI M27-A3 protocol based method; type: functional; settings: isolate CN1, 48 h
[19] = test system: Cryptococcus neoformans; assay: Antifungal activity against Cryptococcus neoformans isolate CN3 measured after 48 hrs by CLSI M27-A3 protocol based method; type: functional; settings: Cryptococcus neoformans, isolate CN3, 48 h; read-out: MIC
[20] = test system: Candida parapsilosis; assay: Antifungal activity against Candida parapsilosis isolate CP3 measured after 48 hrs by CLSI M27-A3 protocol based method; type: functional; settings: Lodderomyces parapsilosis, isolate CP3, 48 h
[21] = test system: Candida albicans; assay: Antifungal activity against Candida albicans ATCC 10231 measured after 48 hrs in presence of 10% FBS by CLSI M27-A3 protocol based method; type: functional; settings: Candida albicans, ATCC 10231, 48 h
[22] = test system: Candida parapsilosis; assay: Antifungal activity against Candida parapsilosis ATCC 22019 measured after 48 hrs in presence of 10% FBS by CLSI M27-A3 protocol based method; type: functional; settings: Lodderomyces parapsilosis, ATCC 22019, 48 h
[23] = test system: Aspergillus nidulans; assay: Antifungal activity against Aspergillus nidulans ATCC 38163 measured after 48 hrs in presence of 10% FBS by CLSI M38-A2 protocol based method; type: functional; settings: ATCC 38163, 48 h
[24] = Hemolytic activity in mouse RBC at 0.48 ug/ml after 1 hr relative to control; type: ADME, cell-based, Erythrocyte; settings: mouse red blood cells (erythrocytes), read-out: Activity
[25] = Hemolytic activity in mouse RBC at […] ug/ml after 1 hr relative to control; type: ADME, cell-based, Erythrocyte; settings: mouse red blood cells (erythrocytes), read-out: Activity
[26] = Hemolytic activity in mouse RBC at 1.95 ug/ml after 1 hr relative to control; type: ADME, cell-based, Erythrocyte; settings: mouse red blood cells (erythrocytes), at 1.95 µg/mL, read-out: Activity
[27] = Hemolytic activity in mouse RBC at 3.9 ug/ml after 1 hr relative to control; type: ADME, cell-based, Erythrocyte; settings: mouse red blood cells (erythrocytes), read-out: Activity
[28] = Hemolytic activity in mouse RBC at 7.8 ug/ml after 1 hr relative to control; type: ADME, cell-based, Erythrocyte; settings: mouse red blood cells (erythrocytes), read-out: Activity
[29] = Hemolytic activity in mouse RBC at 31.3 ug/ml after 1 hr relative to control; type: ADME, cell-based, Erythrocyte; settings: mouse red blood cells (erythrocytes), at 31.3 µg/mL, read-out: Activity
[30] = Cytotoxicity against HEK293 cells assessed as cell survival at 3.9 ug/ml after 24 hrs by resazurin based assay relative to control; settings: human, read-out: Survival
[31] = test system: BEAS-2B; assay: Cytotoxicity against human BEAS2B cells up to 7.8 ug/ml after 24 hrs by resazurin based assay; type: cell-based
[32] = test system: A549; assay: Cytotoxicity against human A549 cells up to 7.8 ug/ml after 24 hrs by resazurin based assay; type: cell-based; settings: a549, 24 h
[33] = test system: Candida albicans; assay: Induction of membrane permeabilization in Candida albicans ATCC 10231 assessed as membrane disruption at 4 times MIC after 1 hr by propidium iodide staining based fluorescence microscopy; type: functional, organism-based
[34] = test system: Candida albicans; assay: Inhibition of Candida albicans ATCC 10231 ERG11 assessed as ergosterol composition of total sterols at 0.48 ug/ml incubated for 10 mins followed by saponification for 2 hrs by GC-MS method (reference value: 100%); set-up: scale not given: the % may be the effect or the level left
[35] = test system: Candida albicans; assay: Inhibition of Candida albicans ATCC 10231 ERG11 assessed as lanosterol composition of total sterols at 0.48 ug/ml incubated for 10 mins followed by saponification for 2 hrs by GC-MS method relative to control; set-up: scale not given: the % may be the effect or the level left
[36] = test system: Candida albicans; assay: Inhibition of Candida albicans ATCC 10231 ERG11 assessed as eburicol composition of total sterols at 0.48 ug/ml incubated for 10 mins followed by saponification for 2 hrs by GC-MS method relative to control; set-up: scale not given: the % may be the effect or the level left
[37] = test system: Candida albicans; assay: Inhibition of Candida albicans ATCC 10231 ERG11 assessed as 14alphamethyl ergosta-8,24(28)-diene-3beta,6alpha-diol composition of total sterols at 0.48 ug/ml incubated for 10 mins followed by saponification for 2 hrs by GC-MS method relative to control; set-up: scale not given: the % may be the effect or the level left
[38] = test system: Candida albicans; assay: Ratio of MIC for Candida albicans ATCC 10231 in presence of 10% FBS to MIC for Candida albicans ATCC 10231 in absence of 10% FBS; type: functional
[39] = test system: Aspergillus nidulans; assay: Ratio of MIC for Aspergillus nidulans ATCC 38163 in presence of 10% FBS to MIC for Aspergillus nidulans ATCC 38163 in absence of 10% FBS; type: functional

SMILES: CCCCCCCCCCCCNCC(O)(Cn1cncn1)c1ccc(F)cc1F (stereo not given)
- hemolysis at 1 h, 62.5 ug/ml [1]: 98%
- MIC [2]: 0.57 µM (≈ 0.241 µg/mL)
- MIC [3]: 2.3 µM (≈ 0.972 µg/mL)
- MIC [4]: 9.2 µM (≈ 3.89 µg/mL)
- MIC [5]: 4.6 µM (≈ 1.94 µg/mL)
- MIC [6]: 18.5 µM (≈ 7.82 µg/mL)
- MIC [7]: 2.3 µM (≈ 0.972 µg/mL)
- MIC [8]: 2.3 µM (≈ 0.972 µg/mL)
- MIC [9]: 1.1 µM (≈ 0.465 µg/mL)
- MIC [10]: 4.6 µM (≈ 1.94 µg/mL)
- MIC [11]: 18.5 µM (≈ 7.82 µg/mL)
- MIC [12]: 9.2 µM (≈ 3.89 µg/mL)
- MIC [13]: 4.6 µM (≈ 1.94 µg/mL)
- MIC [14]: 2.3 µM (≈ 0.972 µg/mL)
- MIC [15]: 4.6 µM (≈ 1.94 µg/mL)
- MIC [16]: 0.14 µM (≈ 0.0592 µg/mL)
- MIC [17]: 0.57 µM (≈ 0.241 µg/mL)
- MIC [18]: 0.57 µM (≈ 0.241 µg/mL)
- MIC [19]: 1.1 µM (≈ 0.465 µg/mL)
- MIC [20]: 0.28 µM (≈ 0.118 µg/mL)
- MIC [21]: 1.95 µg/mL
- MIC [22]: 0.24 µg/mL
- MIC [23]: 7.8 µg/mL
- hemolysis at 1 h, 0.48 ug/ml [24]: 2%
- hemolysis at 1 h, 0.975 ug/ml [25]: 2%
- hemolysis at 1 h, 15.6 ug/ml [25]: 86%
- hemolysis at 1 h, 1.95 ug/ml [26]: 2%
- hemolysis at 1 h, 3.9 ug/ml [27]: 8%
- hemolysis at 1 h, 7.8 ug/ml [28]: 21%
- hemolysis at 1 h, 31.3 ug/ml [29]: 100%
- viability at 24 h, 3.9 ug/ml [30]: > 50%
- Activity [31]: Non-Toxic
- Activity [32]: Non-Toxic
- Activity [33]: Active
- Activity [34]: 36.6%
- Activity [35]: 10%
- Activity [36]: 0.57%
- Activity [37]: 4.69%
- Ratio [38]: 2
- Ratio [39]: 4
